The source of these data is article PMC10534827 (Pharmaceuticals, 2023).

Bounds are passed on as bounds.

For data set [1], the target named is T1, butyrylcholinesterase from equine serum (Equus caballus, UniProt P81908).
T1 construct: butyrylcholinesterase from equine serum; purchased Sigma-Aldrich, Hamburg, Germany; host or cells: equine serum
The data set is described as follows: biochemical. Conditions: for inhibition at 1000 µM: 1 mM solution of the tested compound, read-out: Activity [%] (inhibition percentage of BChE); for IC50: mean ± SD of three experiments, read-out: BChE IC50; for SI BChE: IC50(AChE)/IC50(BChE).
Protocol: (§1) AChE and BChE inhibitory activity was measured using the microplate assay described by Ellman et al. [68] with the modifications added by López et al. [36]. The compounds were tested at concentrations between 10^−3 and 10^−8 M. First, all compounds were dissolved in 1% DMSO in a concentration of 1 mg/mL.
(§2) Incubation of the plates was performed at room temperature for 30 min. Then, 100 μL of substrate solution were added to start the enzymatic reaction. […] Enzyme activity was calculated as an inhibition percentage compared to an assay including buffer instead of an inhibitor. […] All data were analyzed with the software package Prism 3 (Graph Pad Inc., San Diego, CA, USA).

Data set [2] in a line: Ferric reducing antioxidant power (FRAP). Conditions: 150 μL of 5 mM compound, 30 min, 593 nm, Trolox equivalent.
A short description of data set [3]: DPPH radical scavenging activity. Conditions: 300 μL of 5 mM compound in MeOH, 30 min, 517 nm.
Protocol: The DPPH (2,2-diphenyl-1-picryl-hydrazyl-hydrate) free radical scavenging activity method is based on the neutralization of the DPPH radical by an antioxidant.
Free radical scavenging activity was measured using DPPH method [69, 70] with slight modification. Here, 300 μL of 5 mM solutions of tested compounds in MeOH were added to 2 mL methanolic solution of DPPH (2 mg/mL). […] Results were evaluated as percentage scavenging of radical:DPPH radical scavenging activity (%) = ((Abscontr. − Abssample)/Abscontr.) ×100, where Abscontr. is the absorbance of DPPH radical with 300 μL MeOH, Abssample is the absorbance of DPPH radical solution mixed with sample. BHT was used as positive control.
Another data set has as its system SH-SY5Y cells. As to the kind of experiment: MTT cytotoxicity, SH-SY5Y. Type of data set: cell-based, human. Conditions: Homo sapiens, SH-SY5Y; MTT, 72 h exposure; read-out: SH-SY5Y IC50.
Data set [4] concerns the target T2, Acetylcholinesterase from Electrophorus electricus (Electrophorus electricus, UniProt O42275).
T2 construct: purchased Sigma-Aldrich, Hamburg, Germany
As to the kind of experiment: biochemical. Format: biochemical. Particulars: for inhibition at 1000 µM: 1 mM solution of the tested compound, read-out: Activity [%] (inhibition percentage of AChE); for SI AChE: IC50(BChE)/IC50(AChE); for IC50: mean ± SD of three experiments, read-out: AChE IC50.
Protocol: as §1, §2

Another data set has as its system CCL-1 cells. As to the kind of experiment: MTT cytotoxicity, CCL-1 normal fibroblasts. Format: cell-based, murine. Particulars: Mus musculus, Fibroblast; MTT, 72 h exposure; read-out: CCL-1 IC50.
Data set [5] is described as follows: Lipid peroxidation in linoleic acid system, FTC method. Particulars: 10 mM compound, 500 nm.
Protocol: The antioxidant activity of studied compounds against lipid peroxidation was measured through ammonium thiocyanate assay as described by Takao et al. [66] with some modifications. […] A 10 μL aliquot of the reaction solution was then added to 200 μL of 70% (v/v) ethanol and 10 μL of 30% (w/v) ammonium thiocyanate. […] Aliquots were assayed every 24 h until the day after the absorbance of the control solution (without compound) reached maximum value. BHT (10 mM) was used as positive control.
A short description of the next data set: PAMPA-BBB permeability. Type of data set: in vitro ADME. Particulars: for PAMPA BBB −logPe: experimentally measured BBB permeability. The source says:
At the same time, they needed to fulfill the requirement for good BBB permeation in order to achieve sufficient brain exposure. Although transport across the BBB is quite a complex phenomenon, passive diffusion is still the primary route for exogenous substances to access that target. So, the selected compounds were subjected to an in vitro PAMPA-BBB assay, relying on the capacity of the method in distinguishing the candidates with good BBB passive permeabilities. […].
The blood–brain barrier permeabilities were measured by PAMPA Permeability Analyzer (pIONInc, Billerica, MA, USA). The tested compounds and reference standards were prepared as 10 mM stock solutions in DMSO and further diluted in Prisma HT buffer pH 7.4. The experiment followed the BBB Protocol: 200 μL sample’s aliquots in the donor compartment, Brain Sink Buffer aliquots (200 μL) in the acceptor wells, BBB-1 lipid for coating the permeation membranes, “sandwich” assembly with the acceptor plate on top of the donor one, and incubation at temperature 25 °C for 4 h under humidity control without stirring. For permeability assessment, UV spectra of the blank, reference, donor, and acceptor plates were collected at wavelength 250–500 nm. […]. Samples were analyzed in triplicate and average values were reported. […]. Theophylline, corticosterone, and propranolol HCl were used as reference standards to control the quality and consistency of the BBB permeability experiment.
A general note: In PAMPA a lipid-coated filter parts donor from acceptor wells.

Another data set relates to Neuro-2a cells. As to the kind of experiment: MTT cytotoxicity, Neuro-2a. Format: cell-based, murine. Particulars: Mus musculus, N2a; MTT, 72 h exposure; read-out: Neuro-2a IC50.
The nature of data set [6]: ABTS radical scavenging assay. Particulars: 734 nm after 5 min.
Protocol: These compounds were also tested for their antioxidant activities by using the ABTS [2,2′-azinobis (3-ethylbenzothiazoline-6-sulfonic acid)] cation radical decolorization method (Table 4). The BHT [41] was used for comparison. The ABTS cation radical is produced by oxidation of the ABTS molecule with strong oxidizing agents, such as potassium persulfate in water.
For ABTS assay, the procedure followed the method of Arnao et al. [71] with some modifications. […] The working solution was then prepared by mixing the two stock solutions in equal quantities and allowing them to react for 14 h at room temperature in the dark. […] A fresh ABTS solution was prepared for each assay. […] The ABTS scavenging capacity of the compound was calculated as follows:ABTS radical scavenging activity (%) = ((Abscontr. − Abssample)/Abscontr.) ×100, where Abscontr. is the absorbance of DPPH radical with 300 μL MeOH, Abssample is the absorbance of DPPH radical solution mixed with the sample. […] BHT was used as positive control.

T1 sequence (P81908 whole entry): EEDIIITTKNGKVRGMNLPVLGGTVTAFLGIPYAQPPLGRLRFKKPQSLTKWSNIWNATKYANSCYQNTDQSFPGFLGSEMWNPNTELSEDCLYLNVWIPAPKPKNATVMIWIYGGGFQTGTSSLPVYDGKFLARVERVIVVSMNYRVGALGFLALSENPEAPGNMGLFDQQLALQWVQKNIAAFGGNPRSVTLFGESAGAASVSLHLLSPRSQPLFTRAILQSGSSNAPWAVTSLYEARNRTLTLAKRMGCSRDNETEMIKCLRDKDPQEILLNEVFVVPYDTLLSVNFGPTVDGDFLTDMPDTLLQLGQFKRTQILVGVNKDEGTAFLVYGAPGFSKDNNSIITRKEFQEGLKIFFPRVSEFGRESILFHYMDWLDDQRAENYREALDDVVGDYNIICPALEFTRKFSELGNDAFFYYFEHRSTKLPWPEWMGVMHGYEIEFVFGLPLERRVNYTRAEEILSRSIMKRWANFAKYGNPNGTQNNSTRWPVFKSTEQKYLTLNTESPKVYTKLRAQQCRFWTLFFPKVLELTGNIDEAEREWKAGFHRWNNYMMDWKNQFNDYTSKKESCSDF
T2 sequence (O42275 24-633): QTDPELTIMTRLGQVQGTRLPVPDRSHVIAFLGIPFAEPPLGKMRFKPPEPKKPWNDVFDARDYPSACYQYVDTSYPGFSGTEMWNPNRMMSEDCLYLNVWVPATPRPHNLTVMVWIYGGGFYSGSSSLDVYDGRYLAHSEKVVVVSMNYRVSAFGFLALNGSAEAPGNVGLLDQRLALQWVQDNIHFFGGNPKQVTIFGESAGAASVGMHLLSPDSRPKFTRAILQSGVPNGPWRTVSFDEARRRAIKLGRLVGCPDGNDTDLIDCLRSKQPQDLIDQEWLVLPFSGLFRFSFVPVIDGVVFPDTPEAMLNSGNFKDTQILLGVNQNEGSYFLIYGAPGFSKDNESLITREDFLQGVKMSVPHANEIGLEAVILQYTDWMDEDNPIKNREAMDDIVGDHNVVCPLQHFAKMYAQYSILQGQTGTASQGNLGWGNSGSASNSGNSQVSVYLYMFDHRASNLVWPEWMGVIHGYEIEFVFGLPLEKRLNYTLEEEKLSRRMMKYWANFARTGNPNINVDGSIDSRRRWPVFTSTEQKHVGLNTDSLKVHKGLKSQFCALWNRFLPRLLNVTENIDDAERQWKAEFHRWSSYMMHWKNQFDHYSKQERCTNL

Consider `O=C(N/N=C/C1CCN(Cc2ccccc2)CC1)c1ccc(O)cc1O` [3b, N’-[(E)-(1-benzylpiperidin-4-yl)methylidene]-2,4-dihydroxybenzohydrazide], for which, in data set [1], the inhibition (commonly the percentage by which the read-out fell short of the control) at 1000 µM stood at 75.9% and the IC50 (in general, the point on the concentration scale where inhibition reaches its midpoint) is 262 ± 8.75 µM. For the same molecule, in [2], the FRAP is 16.63 ± 0.98 μMTE. Moreover, the “DPPH Activity” value in [3] is given as 13.30 ± 0.83%. In addition, the IC50 with SH-SY5Y cells stood at 138 µM. In [4], the inhibition at 1000 µM worked out at 89.3%, the “SI AChE” value was found to be 13.22 and the IC50 is 19.8 ± 0.95 µM. The IC50 with CCL-1 cells was 154 ± 7.3 µM. For the same molecule, in data set [5], the “Absorbance Day 1” value stood at 0.92 ± 0.06, the “Absorbance Day 2” value was 0.93 ± 0.09, the “Absorbance Day 3” value was 0.95 ± 0.05 and the “Absorbance Day 4” value is recorded as 0.96 ± 0.01. Moreover, the “Absorbance Day 5” value in [5] was 1.00 ± 0.02. Also, the BBB permeability class result in the data set “PAMPA-BBB permeability” (PAMPA-BBB) was “moderately permeable”. In addition, the “PAMPA BBB −logPe” value in “PAMPA-BBB permeability” was 5.873. The IC50 with Neuro-2a cells is more than 300 µM. Further, in [6], the “ABTS Activity” value turned out to be 93.22 ± 0.30% and the IC50 came to 2570 ± 100 µM.

On to `O=C(N/N=C/C1CCN(Cc2ccccc2)CC1)c1c[nH]c2ccccc12` [3c, N’-[(E)-(1-benzylpiperidin-4-yl)methylidene]-1H-indole-3-carbohydrazide], for which, in data set [1], the inhibition at 1000 µM was found to be 77% and the IC50 is 26.3 ± 3.11 µM. In addition, in data set [2], the FRAP is on record as 38.97 ± 3.58 μMTE. Moreover, the “DPPH Activity” value in data set [3] turned out to be 30.05 ± 0.55%. Also, the IC50 in the data set on SH-SY5Y cells came to 97.3 µM. In data set [4], the inhibition at 1000 µM was found to be 72%, the “SI AChE” value came out at 2.45 and the IC50 worked out at 10.8 ± 1.66 µM. Moreover, in the data set with CCL-1 cells, the IC50 is 168 ± 10.4 µM. For the same molecule, in data set [5], the “Absorbance Day 1” value came out at 0.89 ± 0.07, the “Absorbance Day 2” value came out at 0.87 ± 0.02, the “Absorbance Day 3” value is listed as 0.85 ± 0.05 and the “Absorbance Day 4” value came out at 0.85 ± 0.07. In addition, the “Absorbance Day 5” value in data set [5] is listed as 0.74 ± 0.05. Also, the “PAMPA BBB −logPe” value in “PAMPA-BBB permeability” is 4.466. For the same molecule, the IC50 with Neuro-2a cells is more than 300 µM. For the same molecule, in data set [6], the “ABTS Activity” value amounted to 36.69 ± 0.70% and the IC50 was more than 5000 µM.

With `CC(C)(C)OC(=O)NCC(=O)N/N=C/c1cn(Cc2ccccc2)c2ccccc12` [3m, tert-butyl(2-{(2E)-2-[(1-benzyl-1H-indol-3-yl)methylidene]hydrazinyl}-2-oxoethyl)carbamate], in data set [1], the inhibition at 1000 µM is 59.4%, the “SI BChE” value came out at 3.05 and the IC50 is 327 ± 34.3 µM. Further, in data set [2], the FRAP was 19.06 ± 1.96 μMTE. In addition, in data set [3], the “DPPH Activity” value came out at 32.06 ± 4.70%. Besides, the IC50 in the data set on SH-SY5Y cells turned out to be 7.2 ± 1.8 µM. For the same molecule, in [4], the inhibition at 1000 µM amounted to 2.01% and the IC50 is more than 1000 µM. Besides, the IC50 in the data set on CCL-1 cells is 65.4 ± 5.1 µM. In data set [5], the “Absorbance Day 1” value amounted to 0.89 ± 0.09, the “Absorbance Day 2” value is 0.89 ± 0.01, the “Absorbance Day 3” value stood at 0.92 ± 0.05 and the “Absorbance Day 4” value is on record as 0.95 ± 0.01. In addition, the “Absorbance Day 5” value in [5] was 0.96 ± 0.08. Further, the “PAMPA BBB −logPe” value in “PAMPA-BBB permeability” is given as 4.377. In addition, the IC50 with Neuro-2a cells came out at 109 ± 9.1 µM. Also, in [6], the “ABTS Activity” value was 36.20 ± 1.40% and the IC50 was more than 5000 µM.

Consider `COc1ccc2[nH]cc(/C=N/NC(=O)Cc3c[nH]c4ccccc34)c2c1` [3n, 2-(1H-indol-3-yl)-N’-[(E)-(5-methoxy-1H-indol-3-yl)methylidene]acetohydrazide], for which, in data set [1], the inhibition at 1000 µM was 73.7%, the “SI BChE” value worked out at 47.34 and the IC50 amounted to 21.1 ± 1.48 µM. Also, the FRAP in [2] is 14.30 ± 0.56 μMTE. For the same molecule, the “DPPH Activity” value in data set [3] turned out to be 40.62 ± 0.83%. Besides, the IC50 in the data set with SH-SY5Y cells worked out at 108 ± 9.4 µM. Also, in data set [4], the inhibition at 1000 µM amounted to 29.2% and the IC50 was more than 1000 µM. For the same molecule, in the data set with CCL-1 cells, the IC50 stood at 48.2 ± 6.4 µM. In addition, in data set [5], the “Absorbance Day 1” value is given as 0.85 ± 0.05, the “Absorbance Day 2” value was 0.87 ± 0.07, the “Absorbance Day 3” value was determined as 0.89 ± 0.04 and the “Absorbance Day 4” value is listed as 0.90 ± 0.01. In addition, the “Absorbance Day 5” value in data set [5] amounted to 0.92 ± 0.06. The “PAMPA BBB −logPe” value in the data set “PAMPA-BBB permeability” came to 4.084. Besides, the IC50 in the data set on Neuro-2a cells stood at 83.7 ± 8.3 µM. Besides, in data set [6], the “ABTS Activity” value is not below 100% and the half-inhibitory concentration (IC50) is 770 ± 60 µM.

As for `O=S(=O)(N/N=C/C1CCN(Cc2ccccc2)CC1)c1ccccc1` [5a, N’-[(E)-(1-benzylpiperidin-4-yl)methylidene]benzenesulfonohydrazide], in [1], the inhibition at 1000 µM amounted to 79.4% and the half-maximal inhibitory concentration (IC50) came out at 259 ± 4.9 µM. The FRAP in data set [2] is 17.48 ± 0.90 μMTE. Besides, the “DPPH Activity” value in [3] stood at 6.56 ± 0.78%. In addition, the IC50 in the data set on SH-SY5Y cells was found to be 142 ± 13.1 µM. Moreover, in data set [4], the inhibition at 1000 µM is 77% and the IC50 came out at 163 ± 10.7 µM. In addition, the IC50 in the data set with CCL-1 cells came to 157 ± 8.5 µM. For the same molecule, in data set [5], the “Absorbance Day 1” value is listed as 0.83 ± 0.02, the “Absorbance Day 2” value was determined as 0.88 ± 0.08, the “Absorbance Day 3” value was 0.89 ± 0.04 and the “Absorbance Day 4” value is 1.00 ± 0.04. Further, the “Absorbance Day 5” value in [5] turned out to be 1.10 ± 0.05. Further, the “PAMPA BBB −logPe” value in “PAMPA-BBB permeability” worked out at 4.749. The IC50 in the data set on Neuro-2a cells is more than 300 µM. In data set [6], the “ABTS Activity” value was 43.80 ± 0.23% and the IC50 is more than 5000 µM.
